Laboratory results reported in patent publication US8957057B2 (priority 2009, dated 2015).
Several values for one entry are separate records, joined by “and”; a condition that tells them apart may be missing. Equal values may be shown once.

Columns and labels:
[1] = tested on: Prostate specific antigen (PSA) secretion in LNCap.FGC cells; test: cells; conditions: for PSA concentration: 48 hours
Description: Prostate specific antigen (PSA) is a protein secreted by the […] cells of prostate. PSA facilitates semen liquification and presents in male serum in minute amount. In the serum of male subjects suffering from prostate cancer, benign prostatic hyperplasia or prostatic infection, the quantity of PSA presented in serum may increase. Therefore, PSA is so far the most valuable marker in screening and diagnosing prostate tumors. PSA also plays an important role in determining a cancer's stage of development and evaluating the effect of treatment. The amounts of PSA were determined by using Prostate Specific Antigen ELISA kit (Cat. No. BQ067T, Bio Quant, USA). […] 50 μl of each of the retrieved culture media and 50 μl of each of the standard PSA of 0, 2, 4, 8, 25, and 50 ng/ml were added to the wells of a 96-well plate, respectively. Then, 50 μl assay buffer was further added to the wells, and the plate was incubated at room temperature in the dark for 30 minutes. The supernatant was removed and the wells were washed three times with 300 μl wash buffer. […] The supernatant was removed and the wells and washed three times with 300 μl wash buffer. […] Within 15 minutes after completion of the previous step, the wells were examined by a ELISA Reader at 450 nm.

[2] = molecular target: androgen receptor (Homo sapiens, UniProt P10275); test: cell-based; assay type: cell-based
androgen receptor, sequence (P10275 whole entry, looked up): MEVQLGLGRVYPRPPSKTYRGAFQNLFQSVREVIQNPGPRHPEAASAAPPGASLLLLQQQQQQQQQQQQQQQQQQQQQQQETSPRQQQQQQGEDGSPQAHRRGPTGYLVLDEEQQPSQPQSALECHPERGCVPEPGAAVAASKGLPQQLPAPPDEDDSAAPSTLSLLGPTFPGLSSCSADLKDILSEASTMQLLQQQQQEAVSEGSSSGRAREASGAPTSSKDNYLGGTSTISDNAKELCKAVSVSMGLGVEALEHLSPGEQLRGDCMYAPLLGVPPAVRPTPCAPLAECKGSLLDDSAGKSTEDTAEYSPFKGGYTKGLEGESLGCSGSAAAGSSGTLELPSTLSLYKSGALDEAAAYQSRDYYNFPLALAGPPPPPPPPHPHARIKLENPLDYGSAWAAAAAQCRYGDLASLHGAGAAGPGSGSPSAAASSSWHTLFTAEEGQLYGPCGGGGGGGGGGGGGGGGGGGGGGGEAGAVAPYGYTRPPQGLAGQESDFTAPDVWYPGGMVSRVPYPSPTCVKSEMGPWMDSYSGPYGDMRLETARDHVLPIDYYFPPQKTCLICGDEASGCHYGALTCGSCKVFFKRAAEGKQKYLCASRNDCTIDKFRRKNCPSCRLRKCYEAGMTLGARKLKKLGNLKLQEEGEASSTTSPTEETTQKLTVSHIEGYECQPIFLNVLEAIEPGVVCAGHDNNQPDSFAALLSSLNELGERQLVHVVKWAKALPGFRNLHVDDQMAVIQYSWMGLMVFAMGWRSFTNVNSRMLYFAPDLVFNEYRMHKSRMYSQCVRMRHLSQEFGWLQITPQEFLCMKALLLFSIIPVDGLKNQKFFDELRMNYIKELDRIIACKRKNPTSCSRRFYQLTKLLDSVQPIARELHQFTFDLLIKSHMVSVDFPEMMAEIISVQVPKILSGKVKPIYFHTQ
Method: Human MDA-MB-453 cells were used in this assay. The cells in the exponential phase of growth (cultured in RPMI 1640 medium (Gibco, USA), 10% FBS) were washed off with 1 ml of 0.05% trypsin, centrifuged and collected in a centrifuge tube. 1×10^7 cells were resuspended in 270 μl BES medium (5 mM BES in RPMI 1640 medium) and 8 to 10 μg of pPSA-SEAP2 plasmid (see FIG. 4) were also added to the medium.
25 μl of media were retrieved from each cell of the 96-well plate and heated in a 65° C. water bath for 30 minutes. The media were then treated by Phospha-Light™ assay system (Applied Biosystem) in order to detect the secreted alkaline phosphatase (SEAP) reporter protein. The intensity of luminescence was detected by Victor™ Light luminescence counter to determine the activity of the samples in the modulation of the androgen receptor.
Human MDA-MB-453 cells were used in this assay. The cells in the exponential phase of growth (cultured in RPMI 1640 medium (Gibco), 10% FBS) were washed off with 1 ml of 0.05% trypsin, centrifuged and collected in a centrifuge tube. 1×10^7 cells were resuspended in 270 μl BES medium (5 mM BES in RPMI 1640 medium) and 8 to 10 μg of pPSA-SEAP2 plasmid (see FIG. 4) were also added to the medium.

[3] = tested on: MRC-5, MCF-7, HepG2, AGS, HeLa, HEK 293 cells; conditions: MTT, 72 hours, up to 20 μM
Method: (§1) The survive rate of cell was determined by the MTT (3-(4,5-dimethyl-2-thiazolyl)-2,5-diphenyl tetrazolium bromide) method.
(§2) The supernatant of the culture was removed.

[4] = tested on: LNCap.FGC cells; conditions: MTT, 72 hours, up to 20 μM
Method: as §1, §2

## C[C@]12CCC(=O)C[C@@H]1CC[C@@H]1[C@@H]2CC[C@]2(C)[C@@H](O)CC[C@@H]12 [DHT, 5α-dihydrotestosterone, reference compound]
[1]; DHT 5 nM alone
  PSA concentration: 12.61 ng/mL

## C/C=C/C1=CC2=C(CO1)C(=O)[C@]1(C)OC(=O)[C@H](C(=O)CCCCCCC)[C@H]1C2 [ankaflavin]
[2]; MDA-MB-453, read-out: inhibition of the reporter activity
  inhibition at 26 µM: 41%

## C/C=C/C1=CC2=C(CO1)C(=O)[C@]1(C)OC(=O)[C@H](C(=O)CCCCC)[C@H]1C2 [monascin]
[2]
  inhibition of the reporter activity: 55%

## C/C=C/C1=CC2=C(CO1)C(=O)[C@]1(C)OC(=O)[C@H]([C@@H](O)CCCCC)[C@H]1C2 [monascuspiloin, (3S,3aR,9aR)-3a,4-dihydro-3-((S)-1-hydroxyhexyl)-9a-methyl-6-((E)-prop-1-enyl)-3H-furo [3,2-g]isochromene-2,9(8H,9aH)-dione]
[3]
  cytotoxic effect on the other 6 non-human-prostate-cancer cell lines: does not have a significant cytotoxic effect
[4]
  cytotoxic effect on LNCap.FGC: does not have a significant cytotoxic effect
[1]; DHT 5 nM + Monascuspiloin 5 μM
  PSA concentration: 10.27 ng/mL
[1]; DHT 5 nM + Monascuspiloin 10 μM
  PSA concentration: 9.71 ng/mL
[1]; DHT 5 nM + Monascuspiloin 25 μM
  PSA concentration: 8.77 ng/mL
[1]; Homo sapiens, read-out: inhibition of the production of PSA induced by DHT
  inhibition at 20 µM: 43%
[2]; read-out: IC50 for inhibition of the activation of the androgen receptor
  IC50: ~12 µM and 12 µM
